In ChEMBL document CHEMBL1134874, “Identification of a novel partial inhibitor of dopamine transporter among 4-substituted 2-phenylquinazolines” (Bioorg Med Chem Lett, 2002) one finds Ki data, which are given here for twelve compounds.

Assay [1] has as its target Sodium-dependent dopamine transporter (Rattus norvegicus, UniProt P23977). In words: Displacement of [125I]RTI-55 from Dopamine transporter of rat caudate membranes. The class given is cell membranes, Membrane. On the technique in general: Displacement assays read how much labelled ligand stays bound in the presence of the test substance.
The target in assay [2] is Sodium-dependent serotonin transporter (Rattus norvegicus, UniProt P31652). As to the kind of experiment: Inhibition of [125I]RTI-55 binding to Serotonin transporter of rat caudate membranes. The class given is cell membranes, Membrane.
Sequence of Sodium-dependent serotonin transporter (P31652 whole entry): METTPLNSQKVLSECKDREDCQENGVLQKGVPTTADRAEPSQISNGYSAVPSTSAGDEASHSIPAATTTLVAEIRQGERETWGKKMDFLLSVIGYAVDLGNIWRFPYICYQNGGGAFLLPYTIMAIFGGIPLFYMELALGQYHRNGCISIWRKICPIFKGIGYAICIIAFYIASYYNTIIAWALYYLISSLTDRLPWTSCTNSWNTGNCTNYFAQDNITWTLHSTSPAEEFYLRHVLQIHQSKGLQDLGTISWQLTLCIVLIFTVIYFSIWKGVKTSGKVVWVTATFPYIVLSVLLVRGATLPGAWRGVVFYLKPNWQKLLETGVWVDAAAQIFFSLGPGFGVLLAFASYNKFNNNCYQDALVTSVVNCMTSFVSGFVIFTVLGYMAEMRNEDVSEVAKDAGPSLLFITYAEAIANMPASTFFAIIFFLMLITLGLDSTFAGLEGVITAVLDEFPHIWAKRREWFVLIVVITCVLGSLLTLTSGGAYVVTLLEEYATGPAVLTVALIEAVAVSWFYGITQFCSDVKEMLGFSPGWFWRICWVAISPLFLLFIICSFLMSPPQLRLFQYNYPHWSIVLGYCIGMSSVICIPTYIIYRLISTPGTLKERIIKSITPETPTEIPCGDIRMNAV

Sequence of Sodium-dependent dopamine transporter (P23977 whole entry): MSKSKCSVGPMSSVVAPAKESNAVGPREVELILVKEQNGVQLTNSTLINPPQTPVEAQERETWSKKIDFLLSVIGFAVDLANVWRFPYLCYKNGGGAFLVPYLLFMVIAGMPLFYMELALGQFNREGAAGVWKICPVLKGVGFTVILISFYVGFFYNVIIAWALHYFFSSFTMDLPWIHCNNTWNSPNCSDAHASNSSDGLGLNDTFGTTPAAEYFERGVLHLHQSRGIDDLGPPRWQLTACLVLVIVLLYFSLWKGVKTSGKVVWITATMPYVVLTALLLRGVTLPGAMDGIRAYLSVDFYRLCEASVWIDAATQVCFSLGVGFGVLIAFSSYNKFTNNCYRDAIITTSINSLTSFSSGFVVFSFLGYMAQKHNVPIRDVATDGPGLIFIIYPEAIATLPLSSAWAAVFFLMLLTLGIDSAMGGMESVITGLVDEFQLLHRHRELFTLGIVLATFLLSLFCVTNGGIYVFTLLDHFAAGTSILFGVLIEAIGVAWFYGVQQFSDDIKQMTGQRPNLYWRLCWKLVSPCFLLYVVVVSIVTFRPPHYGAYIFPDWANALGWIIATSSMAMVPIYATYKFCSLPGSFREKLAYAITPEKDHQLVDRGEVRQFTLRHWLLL

Consider `CN(C)CCCNc1nc(-c2ccccc2)nc2ccccc12`, for which the Ki in assay [1] and in assay [2] was above 10 µM throughout.

On to `c1ccc(-c2nc(NC(c3ccccc3)c3ccccc3)c3ccccc3n2)cc1`, for which the results for the Ki in assay [1] and in assay [2] were 0.53 µM and above 10 µM, respectively.

With `c1ccc(-c2nc(NCC(c3ccccc3)c3ccccc3)c3ccccc3n2)cc1`, the Ki in assay [1] was 5.4 µM; in assay [2] it was above 10 µM.

As for `c1ccc(-c2nc(SC(c3ccccc3)c3ccccc3)c3ccccc3n2)cc1`, the Ki in assay [1] and in assay [2] was above 10 µM throughout.

Turning to `CN1CCC(Oc2nc(-c3ccccc3)nc3ccccc23)CC1`, the Ki in assay [1] was 9.1 µM; in assay [2], above 10 µM.

With `CN(C)CCCOc1nc(-c2ccccc2)nc2ccccc12`, the Ki in assay [2] was above 10 µM.

For `CN(C)CCCSc1nc(-c2ccccc2)nc2ccccc12`, the inhibition constant Ki is 6.1 µM in assay [1] and 9.6 µM in assay [2].

Take `CN1C2CCC1CC(Oc1nc(-c3ccccc3)nc3ccccc13)C2` (stereo not drawn): the Ki in assay [1] and in assay [2] was 5.1 µM throughout.

Consider `C[C@@H](Nc1nc(-c2ccccc2)nc2ccccc12)c1ccccc1`, for which the Ki in assay [1] is 6.1 µM; in assay [2], above 10 µM.

Take `c1ccc(CNc2nc(-c3ccccc3)nc3ccccc23)cc1`: the Ki was 7.9 µM in assay [1] and above 10 µM in assay [2].

For the compound `C[C@H](Nc1nc(-c2ccccc2)nc2ccccc12)c1ccccc1`, the values for the inhibition constant Ki in assay [1] and in assay [2] were 1.8 µM and above 10 µM, respectively.

Turning to `c1ccc(-c2nc(NCCC(c3ccccc3)c3ccccc3)c3ccccc3n2)cc1`, the Ki in assay [1] and in assay [2] was above 10 µM throughout.

As usually defined, the Ki is the equilibrium dissociation constant of an inhibitor or competing ligand from its target. Low values mean higher affinity, high ones lower affinity.
